Structures can show the parent of a compound that is named as a salt.
Assays:
rabbit corneal reflex = experiment: corneal reflex testing in rabbits (local anesthetic effect); assay type: in vivo
From the text: FIG. 4: Local anesthetic effect of TMB (A) and lidocaine (B) as determined in the rabbit corneal reflex. The values represent the median of percentage of inhibition of corneal reflex calculated for each set of 10 stimulations. The x axis represents time (in minutes) following instillations.*P<0.05; **P<0.01 compared with the control group treated with the vehicle (Mann-Whitney U test).
White New-Zealand male rabbits (CEGAV, Les Hauts Noës, Saint Mars d'Egrenne, France) weighing 1.9-2.7 kg were used. Animals were housed individually in cages placed in an air-conditioned (17-21° C.) animal house kept between 45% and 65% relative humidity and with an artificial day/night cycle (12 h-12 h) with light on at 7.30 am.
Test substances are administered as solutions in sterile water (Baxter, Maurepas, France). The concentrations of test substances are expressed as percentage (weight/volume) of active compound (base form). Each test substance at each concentration is tested on the two eyes of 5 animals (i.e. 10 measurements per substance and per concentration). On the day of the study, animals are placed in restraint cages in a quiet room. Twenty to 30 minutes later, a first measurement of the corneal sensitivity is performed. Any animal presenting a partial or complete corneal insensitivity or any ocular lesion before administration is excluded from the study. Immediately after the first measurement, 2×50 μl of test substances or their vehicle are applied to the cornea. The two instillations were undertaken on each eye at a one-minute interval. Corneal sensitivity is subsequently measured at 5, 10, 20, 30, 40, 50 and 60 minutes following the instillations, and then at 2, 3 and 4 hours after the instillations. Corneal sensitivity is measured by touching gently the center of the cornea with a loop-shape nylon yarn (0.3 mm diameter). For each measurement, this operation is repeated 10 times at regular 2 second intervals. The number of stimulations producing a corneal reflex is noted for each set and for each eye.
Results are expressed as percentage of inhibition of the corneal reflex calculated for each set of 10 stimulations:
% inhibition of corneal reflex=10-(number of stimulations inducing a corneal reflex)×10
For each experimental group, median values are determined. The effects of test compounds are compared with those of the vehicle using a Mann-Withney non-parametric U test at each time of measurement. Areas under curves are calculated over the first 60-minute period following instillation for each animal and each concentration by the trapezoidal method of Bourget et al., 1993. The relative potency of TMB) is compared to that of lidocaine hydrochloride from respective mean areas under curves using a covariance analysis.

[1] = tested on: PGE2-induced hyperalgesia; experiment: PGE2-induced hyperalgesia in the rat (Randall and Selitto test)
[2] = tested on: sodium currents in rat dorsal root ganglia (DRG) neurons; assay type: cell-based

CCC(COC(=O)c1cc(OC)c(OC)c(OC)c1)(c1ccccc1)N(C)C.O=C(O)/C=C\C(=O)O (racemic) [Trimebutine, 2-dimethylamino-2-phenylbutyl 3,4,5-trimethoxybenzoate hydrogen maleate]
duration of local anesthetic effect (rabbit corneal reflex; 0.1% concentration): 20 min
potency relative to lidocaine (rabbit corneal reflex; comparison of areas under the curve over first 60 min): 17 fold
duration of complete local anesthesia (rabbit corneal reflex; instillation of 0.3% or 1%): more than 60 min
concentration giving first significant local anesthetic effects (rabbit corneal reflex; rabbit cornea, instillation): 0.1%
% of analgesic activity ([1]; Trimebutine 100 mg/kg s.c. (T2 of FIG. 5)): 27%
blocking rate kon [2]: 35-40 10^−3 s^−1 μM^−1

CN1CC[C@]23c4c5ccc(O)c4O[C@H]2[C@@H](O)C=C[C@H]3[C@H]1C5 [Morphine, morphine]
% of analgesic activity ([1]; Morphine 0.3 mg/kg s.c., 30 min before test (T1 of FIG. 5)): 22%
% of analgesic activity ([1]; Morphine 3 mg/kg s.c. (M3 of FIG. 6)): 64%

CCN(CC)CC(=O)Nc1c(C)cccc1C [lidocaine, lidocaine hydrochloride]
duration of complete local anesthetic effect (rabbit corneal reflex; 6% concentration): 25 min
inhibition of corneal reflex (rabbit corneal reflex; 6% concentration, 60 min after instillation): no more inhibition
local anesthetic activity (rabbit corneal reflex; up to the concentration of 0.3%): inactive

— patent publication US20030027835A1 (priority 1999, published 2003)
